Experimental data taken from ChEMBL document CHEMBL6121062, “Discovery, Optimization, and Preclinical Pharmacology of EP652, a METTL3 Inhibitor with Efficacy in Liquid and Solid Tumor Models” (J Med Chem, 2025).

What was measured:
[1] = molecular target: T1, METTL3/METTL14 (Homo sapiens, UniProt Q86U44); test: Inhibition of METTL3/METTL14-mediated m6A mRNA expression in human Calu-6 cells incubated for 24 hrs by LC-MS/MS analysis; format: cell-based
[2] = molecular target: Cytochrome P450 3A4 (Homo sapiens, UniProt P08684); test: Inhibition of CYP3A4 (unknown origin); format: ADME
[3] = Half life in rat liver microsomes; format: ADME, Microsome
[4] = molecular target: T1, METTL3/METTL14; test: Displacement of [3H]-SAM from METTL3/METTL14 (unknown origin) using 5'biotinylated-UACACUCGAUCUGGACUAAAGGUGCUC-3' RNA as substrate preincubated for 10 mins followed by substrate/[3H]-SAM addition measured after 90 mins by SPA; format: protein-complex assay
[5] = tested on: Kasumi 1; test: Antiproliferative activity against human Kasumi 1 cells assessed as inhibition of cell viability incubated for 72 hrs by ATPlite assay; format: functional, cell-based; conditions: Kasumi 1, 72 h
[6] = Lipophilicity, logD of compound in 1-octanol/PBS at pH 7.4 incubated for 24 hrs by HPLC analysis; format: physicochemical
[7] = Unbound AUC in Sprague-Dawley rat at 1 mg/kg/day, iv measured for 24 hrs by LC-MS/MS analysis; format: ADME, organism-based; conditions: in vivo
[8] = tested on: MV4-11; test: Antiproliferative activity against human MV4-11 cells assessed as inhibition of cell viability incubated for 72 hrs by ATPlite assay; format: functional, cell-based; conditions: MV4-11, 72 h
[9] = tested on: Caov-3 cell line; test: Antiproliferative activity against human Caov-3 cells assessed as inhibition of cell viability incubated for 72 hrs by ATPlite assay; format: functional, cell-based; conditions: Caov-3, 72 h
[10] = tested on: Calu-6; test: Antiproliferative activity against human Calu-6 cells assessed as inhibition of cell viability incubated for 72 hrs by ATPlite assay; format: functional, cell-based; conditions: Calu-6, 72 h
[11] = tested on: A549; test: Antiproliferative activity against human A549 cells assessed as inhibition of cell viability incubated for 72 hrs by ATPlite assay; format: functional, cell-based; conditions: A549, 72 h
[12] = tested on: FaDu; test: Antiproliferative activity against human FaDu cells assessed as inhibition of cell viability incubated for 72 hrs by ATPlite assay; format: functional, cell-based
[13] = tested on: SK-OV-3; test: Antiproliferative activity against human SK-OV-3 cells assessed as inhibition of cell viability incubated for 72 hrs by ATPlite assay; format: functional, cell-based; conditions: SK-OV-3, 72 h
[14] = tested on: NCI-H1650; test: Growth inhibition of human NCI-H1650 cells spheroid model; format: functional, cell-based
[15] = molecular target: T1, METTL3/METTL14; test: Inhibition of METTL3/METTL14-mediated m6A mRNA expression in human Kasumi 1 cells incubated for 24 hrs by LC-MS/MS analysis; format: cell-based
[16] = molecular target: T1, METTL3/METTL14; test: Inhibition of METTL3/METTL14-mediated m6A mRNA expression in human MV4-11 cells incubated for 24 hrs by LC-MS/MS analysis; format: cell-based
[17] = molecular target: T1, METTL3/METTL14; test: Inhibition of METTL3/METTL14-mediated m6A mRNA expression in human A549 cells incubated for 24 hrs by LC-MS/MS analysis; format: cell-based
[18] = molecular target: T1, METTL3/METTL14; test: Inhibition of METTL3/METTL14-mediated m6A mRNA expression in human FaDu cells incubated for 24 hrs by LC-MS/MS analysis; format: cell-based
[19] = molecular target: T1, METTL3/METTL14; test: Inhibition of METTL3/METTL14-mediated m6A mRNA expression in human SK-OV-3 cells incubated for 24 hrs by LC-MS/MS analysis; format: cell-based
[20] = Unbound AUC in mouse at 30 mg/kg, ip; format: ADME, organism-based; conditions: in vivo
[21] = In vivo inhibition of METTL3/METTL14-mediated m6A mRNA expression in PBMC of rat at 3 to 30 mg/kg relative to control; format: functional; conditions: dose 3-30 mg/kg
[22] = tested on: Rattus norvegicus; test: In vivo inhibition of METTL3/METTL14-mediated m6A mRNA expression in PBMC of rat; format: functional, organism-based; conditions: dose 3-30 mg/kg

T1 sequence (Q86U44 whole entry): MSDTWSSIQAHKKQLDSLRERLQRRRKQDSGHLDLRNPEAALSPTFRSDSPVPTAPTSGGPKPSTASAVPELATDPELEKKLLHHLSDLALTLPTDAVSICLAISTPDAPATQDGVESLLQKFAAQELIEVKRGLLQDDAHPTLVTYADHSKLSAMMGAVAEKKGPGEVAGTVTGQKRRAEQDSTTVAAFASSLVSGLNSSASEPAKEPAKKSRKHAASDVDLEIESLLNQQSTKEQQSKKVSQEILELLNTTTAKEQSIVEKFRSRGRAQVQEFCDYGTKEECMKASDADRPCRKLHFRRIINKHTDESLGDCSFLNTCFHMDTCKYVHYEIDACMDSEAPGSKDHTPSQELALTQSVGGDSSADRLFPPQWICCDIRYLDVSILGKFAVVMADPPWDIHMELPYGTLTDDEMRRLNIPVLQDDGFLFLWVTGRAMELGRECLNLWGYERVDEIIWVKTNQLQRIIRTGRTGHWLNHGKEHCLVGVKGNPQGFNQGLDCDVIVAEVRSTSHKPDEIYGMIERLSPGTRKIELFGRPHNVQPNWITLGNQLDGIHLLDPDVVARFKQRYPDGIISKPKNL
T1 sequence (Q9HCE5 whole entry, further chain): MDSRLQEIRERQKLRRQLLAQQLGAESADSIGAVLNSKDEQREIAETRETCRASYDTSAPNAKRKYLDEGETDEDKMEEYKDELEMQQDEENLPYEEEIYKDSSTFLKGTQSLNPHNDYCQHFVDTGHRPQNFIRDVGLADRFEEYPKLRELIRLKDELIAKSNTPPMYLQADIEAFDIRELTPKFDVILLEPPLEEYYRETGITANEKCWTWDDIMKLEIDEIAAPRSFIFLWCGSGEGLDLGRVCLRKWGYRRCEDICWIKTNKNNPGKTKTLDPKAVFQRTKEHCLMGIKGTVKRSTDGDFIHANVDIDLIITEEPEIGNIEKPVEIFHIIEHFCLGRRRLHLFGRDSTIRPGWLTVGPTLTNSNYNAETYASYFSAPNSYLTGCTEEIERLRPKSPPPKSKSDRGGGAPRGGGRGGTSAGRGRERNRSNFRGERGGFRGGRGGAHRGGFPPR
Cytochrome P450 3A4, sequence (P08684 whole entry): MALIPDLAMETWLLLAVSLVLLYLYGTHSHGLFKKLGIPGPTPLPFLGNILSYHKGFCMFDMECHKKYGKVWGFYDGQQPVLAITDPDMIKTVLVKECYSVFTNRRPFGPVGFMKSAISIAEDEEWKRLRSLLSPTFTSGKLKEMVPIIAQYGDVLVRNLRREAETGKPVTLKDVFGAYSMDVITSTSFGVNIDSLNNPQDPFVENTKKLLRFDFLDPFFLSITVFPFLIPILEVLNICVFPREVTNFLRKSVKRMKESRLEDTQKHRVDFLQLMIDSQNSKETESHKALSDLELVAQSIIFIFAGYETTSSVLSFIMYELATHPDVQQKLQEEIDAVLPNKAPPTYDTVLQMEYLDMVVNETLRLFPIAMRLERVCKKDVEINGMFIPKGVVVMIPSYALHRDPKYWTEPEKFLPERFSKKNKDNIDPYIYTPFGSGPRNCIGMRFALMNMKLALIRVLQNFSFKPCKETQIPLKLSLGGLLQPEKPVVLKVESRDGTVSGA

COc1cc(-c2cn(Cc3ccc(N4CCC[C@@H](NCC5CCC5)C4)nn3)nn2)c2cn[nH]c2c1
IC50 [1]: 100 nM | IC50 [2]: ~800 nM | half-life [3]: 16 min | IC50 [4]: 2 nM | IC50 [5]: 629 nM | logD at 24 h [6]: 1.89

O=C(NCc1ccc2cc(CNCC3CCC3)[nH]c2c1)c1cc(=O)n2ccccc2n1
IC50 [1]: 169 nM | IC50 [4]: 4 nM | IC50 [5]: 1160 nM | logD at 24 h [6]: 1.9 | fAUC [7]: 4.6 µM·min | IC50 [8]: 7630 nM | IC50 [9]: 563 nM | IC50 [10]: 1140 nM | IC50 [11]: > 5000 nM | IC50 [12]: 2210 nM | IC50 [13]: 371 nM | IC50 [14]: 2060 nM | IC50 [15]: 138 nM | IC50 [16]: 182 nM | IC50 [17]: 264 nM | IC50 [18]: 331 nM | IC50 [19]: 134 nM | fAUC [20]: 298.1 µM·min | inhibition (INH) [21]: <=61% | inhibition [22]: Dose-dependent-effect
